Source: PMC11321677, “Reversing MET‐Mediated Resistance in Oncogene‐Driven NSCLC by MET‐Activated Wnt Condensative Prodrug” (Advanced Science, 2024)
Non-standard residues stand in square brackets, D forms with d. Residues, ends and D or L forms follow the SMILES beside them.

Experiments:
[1] = system: PC-9 OE cells (MET overexpression); assay: alamarBlue cell viability; type: cell-based
Experimental: 1 × 10^8 transducing units (TU) of lentivirus were mixed with 40 µL of HitransG P (PC‐9) or HitransG A (NCI‐H1975) infection enhancement solution and 1 mL of complete medium to infect cells in a 6‐well plate.
In the presented cell experiments, Savolitinib was administered in combination with Gefitinib or Osimertinib at a concentration of 10 µM. The cell viability was determined by alamarBlue assay (Thermo Fisher Scientific).

[2] = system: PC-9 OE cell xenografts; assay: PC-9 OE NSCLC cell xenograft mouse model; type: in vivo, BALB/c nude mice; conditions: PC-9 OE xenograft, 3 mg kg−1 tail vein every two days, five injections
From the text: To evaluate the inhibitory impact of WntSI on the Wnt/β‐catenin pathway in vivo, we established a model of PC‐9 OE cell xenografts in BALB/c nude mice (Figure S12A, Supporting Information). […] In addition, we evaluated the drug safety of CA and WntSI, including recording the weight fluctuation of mice during the treatment period as well as the detection of hematological and biochemical indicators (Figure S12F–H, Supporting Information). […] Furthermore, we conducted IHC staining and IHC scoring (Figure 5F,G) to explore the expression of c‐Met, β‐catenin pathway‐associated proteins, as well as Ki67 in the tumor tissues. […] In addition, we closely monitored the fluctuations in body weight among the four groups of mice throughout the course of treatment (Figure 5H).
5×10^6 PC‐9 OE cells were subcutaneously injected into the right flanks of BALB/c nude mice aged 5–6 weeks. The tumor volume was calculated using the equation: volume = 1/2 × length × width^2. Once the tumor volume reached 150–180 mm^3, the mice were randomly grouped. The specific groups are as follows: 1) control (PBS), CA (3 mg kg^−1), and WntSI (3 mg kg^−1); the drug was administered via tail vein every two days for a total five injections; 2) control (normal saline), Gefitinib (25 mg kg^−1 d^−1), Gefitinib combined with Savolitinib (2.5 mg kg^−1 d^−1), and Gefitinib combined with WntSI (3 mg kg^−1, every two days) groups; normal saline, Gefitinib, and Savolitinib were administered by daily gavage, while WntSI was administered via tail vein injection every two days. Tumor growth was monitored daily, and xenografts were collected for formalin‐fixed‐paraffin embedded (FFPE) or snap frozen in liquid nitrogen for subsequent experiments.

[3] = system: PC-9 OE and NCI-H1975 OE cells; assay: Colony formation assay; type: cell-based; conditions: 7–10 days, n = 3
Experimental: The PC‐9 OE and NCI‐H1975 OE cells were seeded at a low density and cultured in serum‐rich medium containing drugs for 7–10 days to assess clone formation. Subsequently, the culture medium was discarded, and the cell colonies were fixed with methanol, stained with 0.1% crystal violet, and washed with distilled water until the background was clear. The number of colonies was quantified using Image J software.

[4] = target: T1, c-Met (Homo sapiens, UniProt P08581); assay: Biotin affinity purification (pull-down) assay; type: binding; conditions: biotin-labeled Tyr-Pep on streptavidin magnetic beads, lysed PC-9 OE cells, 4 °C, 6 h, western blotting
T1 construct: host or cells: PC-9 OE (PC-9 cells stably transduced with MET OE lentivirus)
From the text: The process was successfully replicated through a coarse‐grained dynamic simulation involving the interaction between Tyr‐Pep and CA molecules, wherein the emergence of LLPS and subsequent self‐assembly into a condensate were observed (Figure 3B). […] Next, the mass ratio of 1:0.5 (Tyr‐Pep to CA) was selected for the preparation of the Wnt supramolecular inhibitor, WntSI, in order to maximize the utilization of condensate size for passive tumor targeting. […] Furthermore, the successful assembly of WntSI was once again confirmed by both Fourier‐transform infrared (FT‐IR) spectrum analysis (Figure S5C, Supporting Information) and UV–vis absorption spectrum analysis (Figure S5D, Supporting Information), providing compelling evidence through the presence of characteristic absorption peaks associated with peptide and CA. More importantly, as our design WntSI was constructed by a reversible supramolecular self‐assembly driven by LLPS, which can disassemble in response to MET (Figure 3A). Alpha Fold 2.0 accurately predicted the strong bonding ability between Tyr‐Pep and c‐Met, as depicted in Figure 3D. This prediction was further substantiated through co‐immunoprecipitation analysis involving biotin‐labeled Tyr‐Pep and c‐Met, as illustrated in Figure S5E (Supporting Information). […] The concentration of CA in their supernatant after centrifugation at 15 000 g was measured using HPLC. […]

T1 sequence (P08581 25-1390): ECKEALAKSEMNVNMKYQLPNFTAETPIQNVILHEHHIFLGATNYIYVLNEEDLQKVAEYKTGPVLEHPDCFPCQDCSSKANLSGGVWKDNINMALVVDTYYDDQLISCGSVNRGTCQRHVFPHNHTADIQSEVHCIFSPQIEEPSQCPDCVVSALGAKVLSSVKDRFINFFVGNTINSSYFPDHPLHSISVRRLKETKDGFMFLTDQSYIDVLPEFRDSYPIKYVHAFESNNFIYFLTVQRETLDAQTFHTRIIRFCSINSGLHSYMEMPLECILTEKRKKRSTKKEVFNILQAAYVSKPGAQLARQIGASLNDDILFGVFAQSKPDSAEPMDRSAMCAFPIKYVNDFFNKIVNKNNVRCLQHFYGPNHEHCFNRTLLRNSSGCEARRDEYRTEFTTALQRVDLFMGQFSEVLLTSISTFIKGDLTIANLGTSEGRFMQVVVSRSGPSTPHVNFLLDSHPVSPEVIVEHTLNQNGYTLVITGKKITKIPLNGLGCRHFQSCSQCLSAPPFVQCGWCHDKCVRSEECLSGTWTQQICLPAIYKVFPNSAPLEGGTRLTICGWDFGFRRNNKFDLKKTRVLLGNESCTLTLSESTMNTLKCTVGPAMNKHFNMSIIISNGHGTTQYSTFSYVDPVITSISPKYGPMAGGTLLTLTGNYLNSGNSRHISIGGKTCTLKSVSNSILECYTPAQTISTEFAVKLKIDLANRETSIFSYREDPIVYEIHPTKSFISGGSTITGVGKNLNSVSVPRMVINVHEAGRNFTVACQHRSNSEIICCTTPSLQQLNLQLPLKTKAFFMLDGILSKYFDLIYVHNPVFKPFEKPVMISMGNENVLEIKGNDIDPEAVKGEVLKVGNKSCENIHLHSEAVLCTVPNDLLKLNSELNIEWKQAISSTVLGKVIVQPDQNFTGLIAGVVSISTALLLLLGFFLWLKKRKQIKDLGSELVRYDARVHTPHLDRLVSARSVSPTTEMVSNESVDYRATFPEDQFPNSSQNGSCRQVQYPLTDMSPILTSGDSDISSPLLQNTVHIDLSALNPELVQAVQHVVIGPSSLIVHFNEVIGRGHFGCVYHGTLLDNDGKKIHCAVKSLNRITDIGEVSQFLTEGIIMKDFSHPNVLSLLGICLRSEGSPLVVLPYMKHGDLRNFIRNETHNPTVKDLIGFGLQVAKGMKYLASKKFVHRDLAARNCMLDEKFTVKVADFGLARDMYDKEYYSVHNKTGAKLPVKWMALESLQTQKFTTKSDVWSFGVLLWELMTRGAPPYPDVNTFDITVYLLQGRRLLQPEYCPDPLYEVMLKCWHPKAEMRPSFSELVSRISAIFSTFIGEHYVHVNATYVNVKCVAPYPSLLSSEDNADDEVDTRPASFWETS

C[C@@H](c1ccc2nccn2c1)n1nnc2ncc(-c3cnn(C)c3)nc21 [Savolitinib]
Impact on the susceptibility of EGFR-TKIs [1]: negligible impact

CC(C)c1cc2c(c(O)c1O)[C@@]1(C(=O)O)CCCC(C)(C)[C@@H]1CC2 [CA, carnosic acid]
Levels of ALT and AST ([2]; n = 3): varying degrees of increase | Levels of white blood cells (WBC), neutrophils and platelets ([2]; n = 3): significantly lower than those of the control group | Weight growth rate of mice during treatment ([2]; n = 5): slowed down

CC[C@H](C)[C@H](NC(=O)[C@H](CC(C)C)NC(=O)[C@H](CC(N)=O)NC(=O)[C@@H](NC(=O)[C@@H](CCC(=O)O)NC(=O)[C@@H](Cc1c[nH]cn1)NC(=O)[C@@H](CCC(=O)O)NC(=O)[C@@H](Cc1c[nH]cn1)NC(=O)[C@@H](CCC(=O)O)NC(=O)[C@H](N)Cc1c[nH]cn1)C(C)C)C(=O)N[C@@H](CC(N)=O)C(=O)N[C@@H](Cc1ccc(O)cc1)C(=O)N[C@@H](CCC(N)=O)C(=O)N[C@@H](CC(=O)O)C(=O)N[C@@H](CC(=O)O)C(=O)N[C@@H](C)C(=O)N[C@@H](CCC(=O)O)C(=O)N[C@@H](CC(C)C)C(=O)N[C@H](Cc1c[nH]cn1)C(=O)N[C@H](Cc1c[nH]cn1)C(=O)N[C@H](Cc1c[nH]cn1)C(=O)N[C@H](CCCNC(=N)N)C(=O)N[C@H](CCCNC(=N)N)C(=O)N[C@H](CCCNC(=N)N)C(=O)N[C@H](CCCNC(=N)N)C(=O)N[C@H](Cc1c[nH]cn1)C(N)=O [Tyr‐Pep] (H-[dH][dE][dH][dE][dH][dE]VNLINYQDDAEL[dH][dH][dH][dR][dR][dR][dR][dH]-NH2)
Suppressive effect on clone formation [3]: no impact | Co-immunoprecipitation with c-Met [4]: can be recognized by c‐Met
